Here are results for five compounds from patent publication US20240174618A1, “SUBSTITUTED (2-HETEROARYLOXYPHENYL)SULFONATES, SALTS THEREOF AND THEIR USE AS HERBICIDAL AGENTS” (Bayer Aktiengesellschaft, priority 2021, published 2024).

Common to all, as to assay type: in vivo
For experiment [1], the system named is Setaria viridis (SETVI). Briefly: A. Herbicidal pre-emergence efficacy, SETVI. The gist of the method:
(§1)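 Pre-emergence soil-surface spray in sandy loam pots, WP/EC in water plus 0.5% additive, 600 L/ha. Visual % damage rating after about 3 weeks in greenhouse vs. untreated; 0% = control-like, 100% = dead plants. Rates up to 1280 g/ha.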

Experiment [2] has as its system Echinochloa crus-galli (ECHCG). Briefly: B. Herbicidal post-emergence efficacy, ECHCG. The note with it: rated visually after about 3 weeks. The gist of the method:
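Post-emergence foliar spray, at application rates of 1280 g/ha or less, on one-leaf-stage plants 2–3 weeks post-sowing, using aqueous WP or EC suspensions with 0.5% additive at 600 L/ha. Visual percent efficacy relative to untreated plants scored roughly 3 weeks later in the greenhouse.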

The subject of experiment [3] is Matricaria inodora (MATIN). In words: A. Herbicidal pre-emergence efficacy, MATIN. The gist of the method: as §1
In experiment [4] the test system is Kochia scoparia (KCHSC). In words: A. Herbicidal pre-emergence efficacy, KCHSC. The gist of the method:
as §1

Experiment [5] concerns Veronica persica (VERPE). Briefly: C. Herbicidal pre-emergence efficacy, VERPE. The conditions noted are these: scored after about 3 weeks. In short, it runs like this: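 Pre-emergence test: formulated compounds sprayed as aqueous suspension or emulsion with 0.5% additive at 600 l/ha onto soil covering sown seeds, at rates corresponding to 320 g/ha or less. After about 3 weeks in greenhouse, efficacy scored visually as percent versus untreated controls (100% = plants dead).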

For experiment [6], the system named is Veronica persica (VERPE). In words: A. Herbicidal pre-emergence efficacy, VERPE. The conditions noted are these: for Pre-emergence efficacy against VERPE: dosage 80 g/ha. In short, it runs like this: as §1
Experiment [7] deals with Echinochloa crus-galli (ECHCG). Briefly: A. Herbicidal pre-emergence efficacy, ECHCG. The conditions noted are these: scored visually after about 3 weeks vs untreated controls. In short, it runs like this:
as §1

[8] abbreviates: 320 g/ha, scored visually after about 3 weeks vs untreated controls.
Setting [9] is: pre-emergence, dosage 1280 g/ha.
The mark [10] stands for this setting: 80 g/ha, scored visually after about 3 weeks vs untreated controls.

On to `O=S(=O)(CCC(F)(F)F)Oc1ccccc1Oc1ncc(Cl)cn1` [Example I-8], for which the “Pre-emergence efficacy against SETVI” value in experiment [1] (dosage 80 g/ha), in experiment [1] (dosage 320 g/ha) and in experiment [1] (dosage 1280 g/ha) was 100% in each case. Moreover, the “Post-emergence efficacy against ECHCG in %” value in experiment [2] (320 g/ha) is listed as 90%; in experiment [2] (1280 g/ha), 100%. In addition, the “Pre-emergence efficacy against MATIN” value is on record as 90% in experiment [3] (setting [8]) and 100% in experiment [3] (setting [9]). Moreover, the “Pre-emergence efficacy against KCHSC” value in experiment [4] (setting [10]) worked out at 100%; in experiment [4] (pre-emergence, dosage 320 g/ha), 100%; in experiment [4] (setting [9]), 100%. For the same compound, the “Pre-emergence efficacy against VERPE” value in experiment [5] (80 g/ha), in experiment [5] (320 g/ha) and in experiment [6] was 100% each time. Further, the “Pre-emergence efficacy against VERPE in %” value in experiment [6] (320 g/ha) and in experiment [6] (1280 g/ha) was 100% throughout. In addition, the “Pre-emergence efficacy against ECHCG” value in experiment [7] (80 g/ha) is listed as 90%; in experiment [7] (320 g/ha) it was 90%; in experiment [7] (1280 g/ha) it was 100%.

Regarding `O=S(=O)(CCC(F)(F)F)Oc1c(Cl)cccc1Oc1ncc(Br)cn1` [Example I-32], the “Pre-emergence efficacy against SETVI” value in experiment [1] (dosage 320 g/ha) was found to be 90%; in experiment [1] (dosage 1280 g/ha), 100%. For the same compound, the “Post-emergence efficacy against ECHCG in %” value in experiment [2] (80 g/ha) is on record as 90%; in experiment [2] (320 g/ha), 90%; in experiment [2] (1280 g/ha), 100%. Besides, the “Pre-emergence efficacy against MATIN” value in experiment [3] (setting [9]) was 90%. Besides, the “Pre-emergence efficacy against KCHSC” value in experiment [4] (pre-emergence, dosage 320 g/ha) was found to be 90%; in experiment [4] (setting [9]), 100%. Besides, the “Pre-emergence efficacy against VERPE” value is 80% in experiment [5] (80 g/ha), 100% in experiment [5] (320 g/ha) and 90% in experiment [6]. The “Pre-emergence efficacy against VERPE in %” value in experiment [6] (320 g/ha) was 90%; in experiment [6] (1280 g/ha), 100%. Moreover, the “Pre-emergence efficacy against ECHCG” value in experiment [7] (1280 g/ha) is 100%.

Consider `O=S(=O)(CC1CC(F)(F)C1)Oc1c(F)cccc1Oc1ncc(Cl)cn1` [Example I-53], for which the “Pre-emergence efficacy against SETVI” value in experiment [1] (dosage 80 g/ha), in experiment [1] (dosage 320 g/ha) and in experiment [1] (dosage 1280 g/ha) was 100% throughout. Besides, the “Post-emergence efficacy against ECHCG in %” value in experiment [2] (80 g/ha), in experiment [2] (320 g/ha) and in experiment [2] (1280 g/ha) was 90% each time. Besides, the “Pre-emergence efficacy against MATIN” value in experiment [3] (setting [9]) is given as 100%. Besides, the “Pre-emergence efficacy against KCHSC” value was 100% in experiment [4] (setting [10]); 100% in experiment [4] (pre-emergence, dosage 320 g/ha); 100% in experiment [4] (setting [9]). Further, the “Pre-emergence efficacy against VERPE” value in experiment [5] (80 g/ha), in experiment [5] (320 g/ha) and in experiment [6] was 100% in each case. The “Pre-emergence efficacy against VERPE in %” value in experiment [6] (320 g/ha) and in experiment [6] (1280 g/ha) was 100% each time. For the same compound, the “Pre-emergence efficacy against ECHCG” value in experiment [7] (80 g/ha), in experiment [7] (320 g/ha) and in experiment [7] (1280 g/ha) was 100% each time.

Regarding `CC(C)CS(=O)(=O)Oc1ccccc1Oc1ncc(Cl)cn1` [Example I-7, [2-(5-Chloropyrimidin-2-yl)oxyphenyl] 2-methylpropane-1-sulfonate], the “Pre-emergence efficacy against SETVI” value in experiment [1] (dosage 80 g/ha), in experiment [1] (dosage 320 g/ha) and in experiment [1] (dosage 1280 g/ha) was 100% in each case. Moreover, the “Post-emergence efficacy against ECHCG in %” value in experiment [2] (320 g/ha) and in experiment [2] (1280 g/ha) was 90% each time. The “Pre-emergence efficacy against MATIN” value in experiment [3] (setting [8]) and in experiment [3] (setting [9]) was 100% throughout. The “Pre-emergence efficacy against KCHSC” value in experiment [4] (setting [10]) is reported as 90%; in experiment [4] (pre-emergence, dosage 320 g/ha), 100%; in experiment [4] (setting [9]) it was 100%. For the same compound, the results for the “Pre-emergence efficacy against VERPE” value in experiment [5] (80 g/ha) and in experiment [5] (320 g/ha) were 90% and 100%, respectively. For the same compound, the “Pre-emergence efficacy against VERPE in %” value in experiment [6] (1280 g/ha) is on record as 100%. For the same compound, the “Pre-emergence efficacy against ECHCG” value in experiment [7] (320 g/ha) and in experiment [7] (1280 g/ha) was 100% each time.

Consider `CCCS(=O)(=O)Oc1ccccc1Oc1ncc(Cl)cn1` [Example I-3], for which the “Pre-emergence efficacy against SETVI” value in experiment [1] (dosage 80 g/ha), in experiment [1] (dosage 320 g/ha) and in experiment [1] (dosage 1280 g/ha) was 100% each time. In addition, in experiment [2] (1280 g/ha), the “Post-emergence efficacy against ECHCG in %” value was 90%. For the same compound, the “Pre-emergence efficacy against MATIN” value in experiment [3] (setting [8]) and in experiment [3] (setting [9]) was 100% in each case. The “Pre-emergence efficacy against KCHSC” value was 100% in experiment [4] (setting [10]); 100% in experiment [4] (pre-emergence, dosage 320 g/ha); 100% in experiment [4] (setting [9]). In addition, the “Pre-emergence efficacy against VERPE” value in experiment [5] (320 g/ha) and in experiment [6] was 100% in each case. Besides, the “Pre-emergence efficacy against VERPE in %” value in experiment [6] (320 g/ha) and in experiment [6] (1280 g/ha) was 100% in each case. Further, the “Pre-emergence efficacy against ECHCG” value in experiment [7] (320 g/ha) and in experiment [7] (1280 g/ha) was 100% throughout.
